Source: ChEMBL document CHEMBL4145553, “Design, synthesis, and biological evaluation of novel amide and hydrazide based thioether analogs targeting Histone deacteylase (HDAC) enzymes” (Eur J Med Chem, 2018)

Experiments:
SR = experiment: Growth inhibition of human SR cells assessed as cell growth at 10^-7 M incubated for 48 hrs by sulforhodamine B assay relative to control; assay type: functional; conditions: read-out: Activity
M14 = experiment: Growth inhibition of human M14 cells assessed as cell growth at 10^-6 M incubated for 48 hrs by sulforhodamine B assay relative to control; assay type: functional; conditions: M14, 48 h, read-out: Activity
OVCAR-8 = experiment: Growth inhibition of human OVCAR8 cells assessed as cell growth at 10^-4 M incubated for 48 hrs by sulforhodamine B assay relative to control; assay type: functional; conditions: OVCAR-8, 48 h, read-out: Activity
SNB-75 = experiment: Growth inhibition of human SNB75 cells assessed as cell growth at 10^-6 M incubated for 48 hrs by sulforhodamine B assay relative to control; assay type: functional; conditions: SNB-75, 48 h, read-out: Activity
786-0 [1] = experiment: Growth inhibition of human 786-0 cells assessed as cell growth at 10^-8 M incubated for 48 hrs by sulforhodamine B assay relative to control; assay type: functional; conditions: 786-0, 48 h, read-out: Activity
MDA-MB-468 [2] = experiment: Growth inhibition of human MDA-MB-468 cells incubated for 48 hrs by sulforhodamine B assay; assay type: functional; conditions: MDA-MB-468, 48 h
SF-295 [3] = experiment: Growth inhibition of human SF295 cells incubated for 48 hrs by sulforhodamine B assay; assay type: functional; conditions: SF-295, 48 h
HCT-15 [4] = experiment: Growth inhibition of human HCT15 cells incubated for 48 hrs by sulforhodamine B assay; assay type: functional; conditions: HCT-15, 48 h
HCC 2998 = experiment: Growth inhibition of human HCC2998 cells assessed as cell growth at 10^-8 M incubated for 48 hrs by sulforhodamine B assay relative to control; assay type: functional; conditions: HCC 2998, 48 h, read-out: Activity
MDA-MB-435 [5] = experiment: Growth inhibition of human MDA-MB-435 cells assessed as cell growth at 10^-8 M incubated for 48 hrs by sulforhodamine B assay relative to control; assay type: functional; conditions: MDA-MB-435, 48 h, read-out: Activity
COLO 205 = experiment: Growth inhibition of human COLO205 cells incubated for 48 hrs by sulforhodamine B assay; assay type: functional; conditions: COLO 205, 48 h
BT-549 = experiment: Growth inhibition of human BT549 cells assessed as cell growth at 10^-8 M incubated for 48 hrs by sulforhodamine B assay relative to control; assay type: functional; conditions: BT-549, 48 h, read-out: Activity
SF-295 [6] = experiment: Growth inhibition of human SF295 cells assessed as cell growth at 10^-6 M incubated for 48 hrs by sulforhodamine B assay relative to control; assay type: functional; conditions: SF-295, 48 h, read-out: Activity
RXF 393 = experiment: Growth inhibition of human RXF393 cells assessed as cell growth at 10^-7 M incubated for 48 hrs by sulforhodamine B assay relative to control; assay type: functional; conditions: RXF 393, 48 h, read-out: Activity
KM12 = experiment: Growth inhibition of human KM12 cells assessed as cell growth at 10^-4 M incubated for 48 hrs by sulforhodamine B assay relative to control; assay type: functional; conditions: KM12, 48 h, read-out: Activity
MOLT-4 [7] = experiment: Growth inhibition of human MOLT4 cells incubated for 48 hrs by sulforhodamine B assay; assay type: functional; conditions: MOLT-4, 48 h
SF-268 = experiment: Growth inhibition of human SF268 cells assessed as cell growth at 10^-7 M incubated for 48 hrs by sulforhodamine B assay relative to control; assay type: functional; conditions: SF-268, 48 h, read-out: Activity
MDA-MB-468 [8] = experiment: Growth inhibition of human MDA-MB-468 cells assessed as cell growth at 10^-8 M incubated for 48 hrs by sulforhodamine B assay relative to control; assay type: functional; conditions: MDA-MB-468, 48 h, read-out: Activity
SK-MEL-28 = experiment: Growth inhibition of human SK-MEL-28 cells assessed as cell growth at 10^-5 M incubated for 48 hrs by sulforhodamine B assay relative to control; assay type: functional; conditions: SK-MEL-28, 48 h, read-out: Activity
MOLT-4 [9] = experiment: Growth inhibition of human MOLT4 cells assessed as cell growth at 10^-4 M incubated for 48 hrs by sulforhodamine B assay relative to control; assay type: functional; conditions: MOLT-4, 48 h, read-out: Activity
U-251 = experiment: Growth inhibition of human U251 cells assessed as cell growth at 10^-5 M incubated for 48 hrs by sulforhodamine B assay relative to control; assay type: functional; conditions: U-251, 48 h, read-out: Activity
Histone deacetylase 1 = Histone deacetylase 1 (Homo sapiens, UniProt Q13547); experiment: Inhibition of human HDAC1 by ELISA
HCT-15 [10] = experiment: Growth inhibition of human HCT15 cells assessed as cell growth at 10^-6 M incubated for 48 hrs by sulforhodamine B assay relative to control; assay type: functional; conditions: HCT-15, 48 h, read-out: Activity
SK-OV-3 = experiment: Growth inhibition of human SKOV3 cells assessed as cell growth at 10^-8 M incubated for 48 hrs by sulforhodamine B assay relative to control; assay type: functional; conditions: SK-OV-3, 48 h, read-out: Activity
SK-MEL-5 = experiment: Growth inhibition of human SK-MEL-5 cells incubated for 48 hrs by sulforhodamine B assay; assay type: functional; conditions: SK-MEL-5, 48 h
786-0 [11] = experiment: Growth inhibition of human 786-0 cells assessed as cell growth at 10^-7 M incubated for 48 hrs by sulforhodamine B assay relative to control; assay type: functional; conditions: 786-0, 48 h, read-out: Activity
HL-60 = experiment: Downregulation of HDAC2 mRNA expression in human HL60 cells by qRT-PCR method relative to control; assay type: functional
MDA-MB-435 [12] = experiment: Antiproliferative activity against human MDA-MB-435 cells after 24 hrs by MTT assay; assay type: functional
CAKI-1 = experiment: Growth inhibition of human Caki1 cells incubated for 48 hrs by sulforhodamine B assay; assay type: functional; conditions: CAKI-1, 48 h
[13] = read-out: LC50 (the source's name)
[14] = read-out: pLC50 (the source's name) (converted)

Histone deacetylase 1, sequence (Q13547 whole entry): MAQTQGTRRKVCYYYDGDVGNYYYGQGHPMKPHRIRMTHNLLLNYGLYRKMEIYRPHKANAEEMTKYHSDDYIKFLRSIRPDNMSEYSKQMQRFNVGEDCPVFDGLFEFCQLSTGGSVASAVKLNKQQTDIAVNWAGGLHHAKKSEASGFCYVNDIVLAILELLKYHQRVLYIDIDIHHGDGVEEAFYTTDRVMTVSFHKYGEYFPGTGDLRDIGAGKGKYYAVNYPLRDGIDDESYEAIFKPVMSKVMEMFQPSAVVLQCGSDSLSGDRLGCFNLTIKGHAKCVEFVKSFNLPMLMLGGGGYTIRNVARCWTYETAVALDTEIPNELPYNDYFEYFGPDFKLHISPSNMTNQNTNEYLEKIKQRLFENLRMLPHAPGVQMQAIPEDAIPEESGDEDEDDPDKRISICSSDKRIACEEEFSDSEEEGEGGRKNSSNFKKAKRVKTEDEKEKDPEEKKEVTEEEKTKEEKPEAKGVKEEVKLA

Compound: CCS/C(Nc1ccccc1)=C(\C#N)C(=O)N/N=C\c1ccc(Cl)cc1Cl
- growth at 0.1 µM (SR): 80%
- growth at 1 µM (M14): 72%
- growth at 100 µM (OVCAR-8): 20%
- growth at 1 µM (SNB-75): 76%
- growth at 0.01 µM (786-0 [1]): 95%
- GI50 (MDA-MB-468 [2]; read-out: GI50): 2600 nM
- CC50 (MDA-MB-468 [2]; [13]): > 100 µM
- TGI (MDA-MB-468 [2]; read-out: TGI): 9.19 µM
- GI50 (MDA-MB-468 [2]; read-out: pGI50 (converted)): 2630 nM
- CC50 (MDA-MB-468 [2]; [14]): > 100 µM
- TGI (MDA-MB-468 [2]; read-out: pTGI (converted)): 9.12 µM
- GI50 (SF-295 [3]; read-out: GI50): 2890 nM
- CC50 (SF-295 [3]; [13]): > 100 µM
- TGI (SF-295 [3]; read-out: TGI): > 100 µM
- GI50 (SF-295 [3]; read-out: pGI50 (converted)): 2880 nM
- CC50 (SF-295 [3]; [14]): > 100 µM
- TGI (SF-295 [3]; read-out: pTGI): > 100 µM
- GI50 (HCT-15 [4]; read-out: GI50): 2900 nM
- CC50 (HCT-15 [4]; [13]): > 100 µM
- TGI (HCT-15 [4]; read-out: TGI): > 100 µM
- GI50 (HCT-15 [4]; read-out: pGI50 (converted)): 2880 nM
- CC50 (HCT-15 [4]; [14]): > 100 µM
- TGI (HCT-15 [4]; read-out: pTGI): > 100 µM
- growth at 0.01 µM (HCC 2998): 101%
- growth at 0.01 µM (MDA-MB-435 [5]): 95%
- GI50 (COLO 205; read-out: GI50): 3.09 µM
- CC50 (COLO 205; [13]): > 100 µM
- GI50 (COLO 205; read-out: pGI50 (converted)): 3.09 µM
- CC50 (COLO 205; [14]): > 100 µM
- growth at 0.01 µM (BT-549): 98%
- growth at 1 µM (SF-295 [6]): 80%
- growth at 0.1 µM (RXF 393): 87%
- growth at 100 µM (KM12): 22%
- GI50 (MOLT-4 [7]; read-out: GI50): 3.48 µM
- CC50 (MOLT-4 [7]; [13]): > 100 µM
- TGI (MOLT-4 [7]; read-out: TGI): > 100 µM
- GI50 (MOLT-4 [7]; read-out: pGI50 (converted)): 3.47 µM
- CC50 (MOLT-4 [7]; [14]): > 100 µM
- TGI (MOLT-4 [7]; read-out: pTGI): > 100 µM
- growth at 0.1 µM (SF-268): 94%
- growth at 0.01 µM (MDA-MB-468 [8]): 108%
- growth at 10 µM (SK-MEL-28): 53%
- growth at 100 µM (MOLT-4 [9]): 19%
- growth at 10 µM (U-251): 20%
- IC50 (Histone deacetylase 1): 70 nM
- growth at 1 µM (HCT-15 [10]): 77%
- growth at 0.01 µM (SK-OV-3): 99%
- GI50 (SK-MEL-5; read-out: GI50): 2280 nM
- CC50 (SK-MEL-5; [13]): > 100 µM
- TGI (SK-MEL-5; read-out: TGI): 8.54 µM
- GI50 (SK-MEL-5; read-out: pGI50 (converted)): 2290 nM
- CC50 (SK-MEL-5; [14]): > 100 µM
- TGI (SK-MEL-5; read-out: pTGI (converted)): 8.51 µM
- growth at 0.1 µM (786-0 [11]): 88%
- fold change (FC) (HL-60): <=10
- Activity (MDA-MB-435 [12]): Dose-dependent effect
- GI50 (MDA-MB-435 [12]; Homo sapiens, MDA-MB-435, 24 h): 420 nM
- GI50 (CAKI-1; read-out: GI50): 2390 nM
- CC50 (CAKI-1; [13]): > 100 µM
- TGI (CAKI-1; read-out: TGI): > 100 µM
- GI50 (CAKI-1; read-out: pGI50 (converted)): 2400 nM
- CC50 (CAKI-1; [14]): > 100 µM
- TGI (CAKI-1; read-out: pTGI): > 100 µM
